In patent publication US20240199701A1, “IMMUNOMODULATORS” (BRISTOL-MYERS SQUIBB COMPANY, priority 2021, published 2024):
Read-outs that look alike come from different tables or passages of the source. Starred links: 1 amine or outer side, 2 acyl side, 3 side chain; linkers in the order of their positions; H or OH if unused. Positions of bridges follow the written chain, without caps; N, C: chain ends. Non-standard residues stand in square brackets, D forms with d. Groups on a side chain read outwards from the residue. Primed or numbered codes have the meaning given here. *: point of attachment. Trp(1-CH2CO) = O=C([C@H](Cc1cn(CC(=O)[*:3])c2ccccc12)N[*:1])[*:2]; Pra′ = C-terminal residue bearing an alkyne, joined as triazole; Hexadecanoyl(16-SO3H) = O=C(CCCCCCCCCCCCCCCS(=O)(=O)O)*; γGlu = O=C(O)[C@H](CCC(=O)[*:2])N[*:1]; Hyp = O=C(O)[C@@H]1C[C@@H](O)CN1; NMeNle = CCCC[C@H](NC)C(=O)O; PEG11′ = not defined here; NMeA = CN[C@@H](C)C(=O)O; Dab = NCC[C@H](N)C(=O)O; Dap = NC[C@H](N)C(=O)O

B1: Example 1001 (peptide)
peptide: {CH2CO}-Y[NMeA]NP[Dap]L[Hyp]W[Dab][Trp(1-CH2CO)][NMeNle][NMeNle]LC[Pra′]([PEG11′-γGlu-Hexadecanoyl(16-SO3H)])-OH
modifications: thioether N-14; also: Pra linked to Peg11 via triazole

Key:
PD-1-Ig/PD-L1-His = biological target: T1, PD-1-Ig/PD-L1-His (Homo sapiens, UniProt Q9NZQ7); assay: PD-1/PD-L1 Homogenous Time-Resolved Fluorescence (HTRF) binding assay
T1 construct: hPDL1(19-239)-TVMV-His; TVMV protease cleavage site (C); made in house; host or cells: HEK293T
Text: The ability of the macrocyclic peptides of the present disclosure to bind to PD-L1 was investigated using a PD-1/PD-L1 Homogenous Time-Resolved Fluorescence (HTRF) binding assay.
Homogenous Time-Resolved Fluorescence (HTRF) Assays of Binding of Soluble PD-1 to Soluble PD-L1. Soluble PD-1 and soluble PD-L1 refers to proteins with carboxyl-end truncations that remove the transmembrane-spanning regions and are fused to heterologous sequences, specifically the Fc portion of the human immunoglobulin G sequence (Ig) or the hexahistidine epitope tag (His). All binding studies were performed in an HTRF assay buffer consisting of dPBS supplemented with 0.1% (w/v) bovine serum albumin and 0.05% (v/v) Tween-20. For the PD-1-Ig/PD-L1-His binding assay, inhibitors were pre-incubated with PD-L1-His (10 nM final) for 15 m in 4 μl of assay buffer, followed by addition of PD-1-Ig (20 nM final) in 1 μl of assay buffer and further incubation for 15 m. PD-L1 fusion proteins from either human, cynomologous macaques, mouse, or other species were used. HTRF detection was achieved using europium crypate-labeled anti-Ig monoclonal antibody (1 nM final) and allophycocyanin (APC) labeled anti-His monoclonal antibody (20 nM final). Antibodies were diluted in HTRF detection buffer and 5 μl was dispensed on top of binding reaction. The reaction was allowed to equilibrate for 30 minutes and signal (665 nm/620 nm ratio) was obtained using an EnVision fluorometer. Additional binding assays were established between PD-1-Ig/PD-L2-His (20 and 5 nM, respectively), CD80-His/PD-L1-Ig (100 and 10 nM, respectively) and CD80-His/CTLA4-Ig (10 and 5 nM, respectively).
Recombinant Proteins. Carboxyl-truncated human PD-1 (amino acids 25-167) with a C-terminal human Ig epitope tag [hPD-1 (25-167)-3S-IG] and human PD-L1 (amino acids 18-239) with a C-terminal His epitope tag [hPD-L1(19-239)-tobacco vein mottling virus protease cleavage site (TVMV)-His] were expressed in HEK293T cells and purified sequentially by recombinant Protein A affinity chromatography and size exclusion chromatography. Human PD-L2-His (Sino Biologicals), CD80-His (Sino Biologicals), CTLA4-Ig (RnD Systems) were all obtained through commercial sources.

[1] = biological target: T2, 293T-hPD-L1 cells (binding of PE-labeled PD-1-Ig to human PD-L1) (Homo sapiens, UniProt Q9NZQ7); assay: 293T-hPD-L1 Cell Binding High-Content Screening Assay (CBA); assay type: cell-based; conditions: 293T cells over-expressing human PD-L1, PE-labeled PD-1-Ig 0.5 nM, 10% fetal calf serum; read-out: 293T-hPD-L1_PD-1 IC50
T2 construct: expressed in transfected cells
Description: 293T-hPD-L1 Cell Binding High-Content Screening Assay (CBA). Phycoerythrin (PE) was covalently linked to the Ig epitope tag of human PD-1-Ig and fluorescently-labeled PD-1-Ig was used for binding studies with a human embryonic kidney cell line (293T) stably over-expressing human PD-L1 (293T-hPD-L1). Briefly, 2×10^3 293T-hPD-L1 cells were seeded into 384 well plates in 20 μl of DMEM supplemented with 10% fetal calf serum and cultured overnight. 125 nl of compound was added to cells followed by 5 μl of PE-labeled PD-1-Ig (0.5 nM final), diluted in DMEM supplemented with 10% fetal calf serum, followed by incubation at 37° C. for Ih. Cells were washed 3× in 100 μl dPBS followed by fixation with 30 μl of 4% paraformaldehyde in dPBS containing 10 μg/ml Hoechst 33342 for 30 min at room temperature. Cells were washed 3× in 100 μl of dPBS followed by final addition of 15 μl of dPBS. Data was collected and processed using a Cell Insight NXT High Content Imager and associated software.

[2] = biological target: Recombinant Human PD-L1-TVMV-His, hPDL1(19-239)-TVMV-His (human) (UniProt Q9NZQ7); assay: HTRF competition, inhibits PD-1-Ig binding to PD-L1-His
[3] = soluble hPD-1-Ig / hPD-L1-His, HTRF, read-out: LE HTRF hPD1 hPDL1 IC50

T2 sequence (Q9NZQ7 19-290): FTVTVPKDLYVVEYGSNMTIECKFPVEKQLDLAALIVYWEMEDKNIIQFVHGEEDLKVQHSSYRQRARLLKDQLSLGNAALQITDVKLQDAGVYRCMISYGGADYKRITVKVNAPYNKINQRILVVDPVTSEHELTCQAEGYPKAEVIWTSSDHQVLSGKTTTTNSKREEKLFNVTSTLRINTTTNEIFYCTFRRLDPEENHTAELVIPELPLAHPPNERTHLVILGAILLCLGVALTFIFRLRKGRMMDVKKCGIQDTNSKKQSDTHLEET
Recombinant Human PD-L1-TVMV-His, hPDL1(19-239)-TVMV-His (human), sequence (Q9NZQ7 other isoform, or with tags, fused parts or gaps limits assumed): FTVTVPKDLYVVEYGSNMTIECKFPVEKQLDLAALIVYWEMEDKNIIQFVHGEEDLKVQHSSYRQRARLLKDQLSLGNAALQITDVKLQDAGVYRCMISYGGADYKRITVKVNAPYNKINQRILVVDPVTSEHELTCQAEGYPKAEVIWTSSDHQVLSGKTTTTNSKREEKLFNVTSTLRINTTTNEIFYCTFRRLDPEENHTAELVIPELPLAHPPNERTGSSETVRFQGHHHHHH

Row | Molecule | IC50 (PD-1-Ig/PD-L1-His; [3]) [nM] | IC50 [1] [nM] | also measured
1 | CCCC[C@H]1C(=O)N(C)[C@@H](CCCC)C(=O)N[C@@H](CC(C)C)C(=O)N[C@H](C(=O)N[C@@H](C)C(=O)N[C@@H](Cc2cn(CCOCCOCCOCCOCCOCCOCCOCCOCCOCCOCCOCCNC(=O)CC[C@H](NC(=O)CCCCCCCCCCCCCCCS(=O)(=O)O)C(=O)O)nn2)C(=O)O)CSCC(=O)N[C@@H](Cc2ccc(O)cc2)C(=O)N(C)[C@@H](C)C(=O)N[C@@H](CC(N)=O)C(=O)N2CCC[C@H]2C(=O)N[C@@H](CN)C(=O)N[C@@H](CC(C)C)C(=O)N2C[C@H](O)C[C@H]2C(=O)N[C@@H](Cc2c[nH]c3ccccc23)C(=O)N[C@@H](CCN)C(=O)N[C@@H](Cc2cn(CC(=O)O)c3ccccc23)C(=O)N1C [Example 1002] | 2 | 0.1 | –
2 | CCCC[C@H]1C(=O)N(C)[C@@H](CCCC)C(=O)N[C@@H](CC(C)C)C(=O)N[C@H](C(=O)N[C@@H](CCCN)C(=O)N[C@@H](Cc2cn(CCOCCOCCOCCOCCOCCOCCOCCOCCOCCOCCOCCNC(=O)CC[C@H](NC(=O)CCCCCCCCCCCCCCCS(=O)(=O)O)C(=O)O)nn2)C(=O)O)CSCC(=O)N[C@@H](Cc2ccc(O)cc2)C(=O)N(C)[C@@H](C)C(=O)N[C@@H](CC(N)=O)C(=O)N2CCC[C@H]2C(=O)N[C@@H](CN)C(=O)N[C@@H](CC(C)C)C(=O)N2C[C@H](O)C[C@H]2C(=O)N[C@@H](Cc2c[nH]c3ccccc23)C(=O)N[C@@H](CCN)C(=O)N[C@@H](Cc2cn(CC(=O)O)c3ccccc23)C(=O)N1C [Example 1003] | 38.1 | – | –
3 | CCCC[C@H]1C(=O)N(C)[C@@H](CCCC)C(=O)N[C@@H](CC(C)C)C(=O)N[C@H](C(=O)NCC(=O)N[C@@H](Cc2cn(CCOCCOCCNC(=O)[C@H](CCC(=O)O)NC(=O)CC[C@H](NC(=O)CCCCCCCCCCCCCCCS(=O)(=O)O)C(=O)O)nn2)C(=O)O)CSCC(=O)N[C@@H](Cc2ccc(O)cc2)C(=O)N(C)[C@@H](C)C(=O)N[C@@H](CC(N)=O)C(=O)N2CCC[C@H]2C(=O)N[C@@H](CN)C(=O)N[C@@H](CC(C)C)C(=O)N2C[C@H](O)C[C@H]2C(=O)N[C@@H](Cc2c[nH]c3ccccc23)C(=O)N[C@@H](CCN)C(=O)N[C@@H](Cc2cn(CC(=O)O)c3ccccc23)C(=O)N1C [Example 1006] | – | 61.8 | –
4 | CCCC[C@H]1C(=O)N(C)[C@@H](CCCC)C(=O)N[C@@H](CC(C)C)C(=O)N[C@H](C(=O)NCC(=O)N[C@@H](Cc2cn(CCOCCOCCOCCOCCOCCOCCOCCOCCOCCOCCOCCNC(=O)CC[C@H](NC(=O)CCCCCCCCCCCCCCCP(=O)(O)O)C(=O)O)nn2)C(=O)O)CSCC(=O)N[C@@H](Cc2ccc(O)cc2)C(=O)N(C)[C@@H](C)C(=O)N[C@@H](CC(N)=O)C(=O)N2CCC[C@H]2C(=O)N[C@@H](CN)C(=O)N[C@@H](CC(C)C)C(=O)N2C[C@H](O)C[C@H]2C(=O)N[C@@H](Cc2c[nH]c3ccccc23)C(=O)N[C@@H](CCN)C(=O)N[C@@H](Cc2cn(CC(=O)O)c3ccccc23)C(=O)N1C [Example 1007] | – | – | IC50 (PD-1-Ig/PD-L1-His): 14 nM
5 | CCCC[C@H]1C(=O)N(C)[C@@H](CCCC)C(=O)N[C@@H](CC(C)C)C(=O)N[C@H](C(=O)NCC(=O)N[C@@H](Cc2cn(CCOCCOCCOCCOCCOCCOCCOCCOCCOCCOCCOCCNC(=O)CC[C@H](NC(=O)CCCCCCCCCCCCCCCS(=O)(=O)O)C(=O)O)nn2)C(=O)O)CSCC(=O)N[C@@H](Cc2ccc(O)cc2)C(=O)N(C)[C@@H](C)C(=O)N[C@@H](CC(N)=O)C(=O)N2CCC[C@H]2C(=O)N[C@@H](CN)C(=O)N[C@@H](CC(C)C)C(=O)N2C[C@H](O)C[C@H]2C(=O)N[C@@H](Cc2c[nH]c3ccccc23)C(=O)N[C@@H](CCN)C(=O)N[C@@H](Cc2cn(CC(=O)O)c3ccccc23)C(=O)N1C [Example 1008] | 7.3 | 1.2 | –
6 | CCCC[C@H]1C(=O)N(C)[C@@H](CCCC)C(=O)N[C@@H](CC(C)C)C(=O)N[C@H](C(=O)NCC(=O)N[C@@H](Cc2cn(CCOCCOCCOCCNC(=O)CC[C@H](NC(=O)CCCCCCCCCCCS(=O)(=O)O)C(=O)O)nn2)C(=O)O)CSCC(=O)N[C@@H](Cc2ccc(O)cc2)C(=O)N(C)[C@@H](C)C(=O)N[C@@H](CC(N)=O)C(=O)N2CCC[C@H]2C(=O)N[C@@H](CN)C(=O)N[C@@H](CC(C)C)C(=O)N2C[C@H](O)C[C@H]2C(=O)N[C@@H](Cc2c[nH]c3ccccc23)C(=O)N[C@@H](CCN)C(=O)N[C@@H](Cc2cn(CC(=O)O)c3ccccc23)C(=O)N1C [Example 1010] | – | 0.13 | –
7 | B1 | – | – | IC50 [2]: 0.6 nM
